Test results reported in US12157745B2, “Heterocyclic systems and pharmaceutical compositions thereof” (University of Sharjah, priority 2018, dated 2024).

Columns and labels:
[1] = test system: MCF-7 cells; assay: Cell cycle analysis (propidium iodide, flow cytometry); type: cell-based; settings: after 16, 24, 48, and 72 hours of treatment
Description: (§1) Apoptosis studies: The molecular effect of compound it was evaluated by investigating its apoptotic (FIG. 5) and cell cycle arresting potentials (FIGS. 6A and 6B). Compound it arrests the cells at G0/G1 phase in MCF-7 cells (>15%) with respect to control cells after 16, 24, 48, and 72 hours of treatment.
Cell cycle arresting potentials of compound it were analyzed by an already established protocol with minor modifications. In brief, 3×10^6 cells of MCF-7, SKBR3, and HCT116 were seeded and incubated overnight in a T75 cm^2 flask before treating with IC50 dose of compound it for […]. The cells which were devoid of any treatments served as controls for each group. After respective treatment hours, the cells were washed two times with PBS and fixed with ice cold ethanol (70%) overnight. The cells were then washed two times with cold PBS and 1×10^6 cells were then counted and incubated with 1 ml RNAase (100 μg/mL) for 30 min at 37° C. The cell pellet was further added with 200 μl of propidium iodide (50 μg/mL) and immediately analyzed by a flow cytometer (BD, Accuri C6).

[2] = test system: SKBr3 cells; assay: Apoptosis study (western blot, caspase-3 activation); type: cell-based; settings: multi-drug resistant breast cancer cells SKBr3
Description: as §1
(§2) The MCF-7, SKBR3 and HCT116 total cell lysate were prepared after 24 hours of treatment with compound it at IC50 and DIC50 doses by using 1× laemmli buffer. Total protein concentration was then estimated for each sample and 15-30 μg of protein lysate were loaded equally on 12% SDS-PAGE gel in order to detect various proteins expression levels. In short, the membrane was incubated with different primary antibodies (as mentioned in above section) (1:1000) overnight after blocking with 5% non-fat milk solution for 1 hour. The membrane was then re-probed with respective mouse/rabbit secondary antibodies (1:2000) for 1 h, and later developed by enhanced chemiluminescence (ECL) method by using a Chemidoc MP (BioRad, Germany).
The apoptotic level was measured using a kit method as per supplier's protocol. […] 2×10^6 cells were counted and re-suspended in 1 mL of binding buffer (1×). […] 400 μL of IX binding buffer was finally added to the cells and analyzed immediately by using by a flow cytometer (BD, Accuri C6).

[3] = test system: C-Myc oncogenic protein; assay: Western blot, C-Myc expression; type: cell-based; settings: all the tested cell lines
Description: Over-expression of this oncogene could result in tumor cell proliferation and migration and therefore its inhibition may halt tumor growth. Other pro-apoptotic (Bid, Bax, caspase-3 & -9) and anti-apoptotic (Bcl-xL) proteins were also modulated by compound it as evident from western blot analysis and as confirmed by annexin V study (FIG. 7).
as §2

[4] = test system: p21; assay: Western blot, p21 expression; type: cell-based; settings: HCT116 colon cancer cells
Description: as §2

[5] = biological target: T1, inositol-3-phosphate synthase (Homo sapiens, UniProt Q9NPH2); assay: DARTS proteomic assay; type: binding
T1 construct: HEK293T cells were lysed using M-PER; endogenous in cells; host or cells: HEK293T lysate
Description: (§3) The unique properties of compound it prompted an in-depth analysis to explore its potential novel targets.
(§4) Similarly, deregulated inositol metabolism has been observed in a number of diseases, including cancer, where inositol modulates different critical pathways in disease progression. Moreover, it is expressed consistently in bipolar disorders and Alzheimer's diseases. […] Likewise, the role of glutathione reductase is well known in cancer progression and chemoresistance. The equilibrium between the glutathione disulphide ratio is critical not only in cancer progression but also in increased oxidative stress which can lead to other disorders.
(§5) A DARTS assay was used to assess the binding of compound 1t. HEK293T cells were lysed using M-PER (Thermo Scientific, Inc.) supplemented with protease and phosphatase inhibitors (Lysis buffer). 4.7 mg/mL of protein and TNC buffer (10 mM Tris, 140 mMNaCl, 5 mM CaCl2)) was added, compound it was diluted in DMSO to 3 different concentrations (0.01 μM, 0.1 μM, 1 μM) and incubated for one hour at room temperature. Trypsin (Promega) was added and incubated for 3 hours at 37° C. Thereafter, M-PER lysis buffer was added and the samples were concentrated with Microcon 10K centrifugal filters. The proteins were identified by gel electrophoresis liquid chromatography mass spectroscopy (GelLCMS).

[6] = biological target: T2, transferrin receptor proteins (Homo sapiens, UniProt P02786); assay: DARTS proteomic assay; type: binding
T2 construct: HEK293T cells were lysed using M-PER; endogenous in cells; host or cells: HEK293T lysate
Description: as §3, §4, §5

[7] = biological target: T3, dihydrolipoamide dehydrogenase (Homo sapiens, UniProt P09622); assay: DARTS proteomic assay; type: binding; settings: FIG. 15
T3 construct: HEK293T cells were lysed using M-PER; endogenous in cells; host or cells: HEK293T lysate
Description: as §3
Dihydrolipoamide dehydrogenase (DLD) is a mitochondrial enzyme involved in metabolic process that is encoded by the DLD gene. Not many studies have been done to identify the direct involvement of this enzyme in cancers. However, a deregulated level of DLD may modulate mitochondrial-mediated diseases and may impair normal metabolic processes. […] The presently disclosed data is encouraging and indicates compound it may potentially be used to target multiple key enzymes that are involved in tumor development and progression.
as §5

T3 sequence (P09622 36-509): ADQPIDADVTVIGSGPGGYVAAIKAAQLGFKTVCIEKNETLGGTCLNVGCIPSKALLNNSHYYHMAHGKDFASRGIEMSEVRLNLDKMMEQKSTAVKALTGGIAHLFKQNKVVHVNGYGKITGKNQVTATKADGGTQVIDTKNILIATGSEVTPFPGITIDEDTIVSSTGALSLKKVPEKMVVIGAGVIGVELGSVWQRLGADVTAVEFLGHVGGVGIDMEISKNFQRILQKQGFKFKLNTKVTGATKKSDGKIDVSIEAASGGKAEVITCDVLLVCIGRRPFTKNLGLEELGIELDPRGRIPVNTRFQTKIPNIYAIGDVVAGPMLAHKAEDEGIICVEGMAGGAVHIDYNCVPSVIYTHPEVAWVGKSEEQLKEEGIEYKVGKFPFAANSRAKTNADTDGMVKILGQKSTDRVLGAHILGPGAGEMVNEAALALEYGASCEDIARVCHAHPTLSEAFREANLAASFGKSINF
T2 sequence (P02786 whole entry): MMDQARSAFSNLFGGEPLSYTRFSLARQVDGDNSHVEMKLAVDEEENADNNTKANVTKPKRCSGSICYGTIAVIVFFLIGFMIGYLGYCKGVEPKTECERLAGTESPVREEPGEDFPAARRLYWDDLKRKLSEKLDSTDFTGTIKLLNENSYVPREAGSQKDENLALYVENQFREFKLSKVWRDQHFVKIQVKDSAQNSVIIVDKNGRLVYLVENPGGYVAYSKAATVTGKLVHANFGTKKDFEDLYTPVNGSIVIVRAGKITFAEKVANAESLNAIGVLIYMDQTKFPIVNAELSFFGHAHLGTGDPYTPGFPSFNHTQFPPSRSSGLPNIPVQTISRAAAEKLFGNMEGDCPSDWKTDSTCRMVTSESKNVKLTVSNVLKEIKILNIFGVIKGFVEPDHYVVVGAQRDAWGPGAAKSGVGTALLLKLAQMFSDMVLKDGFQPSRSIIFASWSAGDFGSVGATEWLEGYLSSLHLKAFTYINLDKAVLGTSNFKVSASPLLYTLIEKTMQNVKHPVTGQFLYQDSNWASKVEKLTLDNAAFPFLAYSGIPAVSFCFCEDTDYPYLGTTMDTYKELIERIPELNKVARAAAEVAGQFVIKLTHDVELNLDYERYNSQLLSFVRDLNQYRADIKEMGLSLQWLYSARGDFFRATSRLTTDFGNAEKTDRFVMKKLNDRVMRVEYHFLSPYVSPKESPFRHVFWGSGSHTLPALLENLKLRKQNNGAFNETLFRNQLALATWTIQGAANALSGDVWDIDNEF
T1 sequence (Q9NPH2 whole entry): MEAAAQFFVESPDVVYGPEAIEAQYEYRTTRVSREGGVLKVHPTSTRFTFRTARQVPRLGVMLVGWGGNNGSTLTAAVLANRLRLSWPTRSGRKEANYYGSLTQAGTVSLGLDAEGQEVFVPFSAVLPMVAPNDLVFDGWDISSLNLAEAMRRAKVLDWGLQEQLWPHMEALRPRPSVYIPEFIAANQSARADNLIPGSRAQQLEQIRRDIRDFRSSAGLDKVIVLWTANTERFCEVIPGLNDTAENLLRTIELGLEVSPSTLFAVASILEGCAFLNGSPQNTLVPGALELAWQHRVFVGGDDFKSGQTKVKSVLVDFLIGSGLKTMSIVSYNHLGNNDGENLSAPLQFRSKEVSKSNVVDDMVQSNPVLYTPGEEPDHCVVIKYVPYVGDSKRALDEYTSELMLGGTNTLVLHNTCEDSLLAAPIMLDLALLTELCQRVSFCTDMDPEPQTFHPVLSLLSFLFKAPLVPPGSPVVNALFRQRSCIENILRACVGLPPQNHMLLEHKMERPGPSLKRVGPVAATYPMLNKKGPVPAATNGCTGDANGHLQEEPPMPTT

- Affinity to bind inositol-3-phosphate synthase [5]: dose-dependent affinity
- Affinity to transferrin receptors [6]: higher affinity
- Regulation of dihydrolipoamide dehydrogenase [7]: regulates this enzyme
Structure (SMILES): CC1(C)[C@H]2COc3ccc4ccccc4c3[C@H]2N=C2SC(c3ccccc3)=C(c3ccccc3)N21 [Compound 1t]
- Cells arrested at G0/G1 phase with respect to control cells [1]: > 15%
- Apoptotic induction [2]: mitochondrial-mediated apoptotic induction with caspase-3 activation
- C-Myc oncogenic protein [3]: inhibited
- Expression of p21 [4]: overexpressed
